The nature of one data set: physchem. The following applies: for solubility at 24 h: 37 °C, thermodynamic from solid. As for the experimental part:
For each sample, 30 mg of the freebase was weighed into vials (in triplicate) and 1 mL of water or buffer was added. The following buffers (50 mM in each case) used were: • pH 1 25 mL KCl solution (1.49 g dissolved in 100 mL water) and 42.5 mL HCl solution (1.66 mL made up to 100 mL with water) were added together and made up to 100 mL with water; • pH 4.5 anhydrous sodium acetate (1.07 g) was dissolved in water (about 150 mL) before adding 5.9 mL acetic acid solution (11.6 mL glacial acetic acid made up to 100 mL with water). The resulting solution was made up to 500 mL with water; and • pH 6.8 25 mL of KH2PO4 solution (2.72 g dissolved in about 80 mL water and made up to 100 mL with water) and 11.2 mL of NaOH solution (800 mg of sodium hydroxide was dissolved and diluted to 100 mL with water) were added together and made up to 100 mL with water.
(§1) The resulting samples were shaken at 37° C. for 1 hour. […] All samples were then shaken at 37° C. for 23 hours. […] Any solids which were isolated by filtration were assessed by XRPD to determine whether the form of the material had changed.

The conditions of data set [1]: solids shaken in water or pH 1 / 4.5 / 6.8 buffer at 37° C. As for the experimental part:
as §1

The conditions of data set [2]: up to 1 mL. As for the experimental part:
Between each addition, the mixture was checked for dissolution and, if no dissolution was apparent, the mixture was heated to about 50° C. and checked again. After 300 μL of solvent had been added, 100 μL aliquots were added sequentially. This procedure was continued until dissolution was observed or until 1 mL of solvent had been added. If no dissolution occurred, the solids were isolated by filtration and an XRPD pattern was collected. If dissolution occurred, the solvent was evaporated and an XRPD pattern was collected on any solid which remained.

For data set [3] the following is noted: for Hygroscopicity: GVS, double cycle. As for the experimental part:
Typically, approximately 10-20 mg of sample was placed into a mesh vapour sorption balance pan and loaded into an IGASorp Moisture Sorption Analyser balance by Hiden Analytical. The sample was subjected to a ramping profile from 40-90% relative humidity (RH) at 10% increments, maintaining the sample at each step until a stable weight had been achieved (98% step completion, minimum step length 30 minutes, maximum step length 60 minutes) at 25° C. After completion of the sorption cycle, the sample was dried using the same procedure to 0% RH, and finally taken back to the starting point of 40% RH. Two cycles were performed. The weight change during the sorption/desorption cycles were plotted, allowing for the hygroscopic nature of the sample to be determined.

The subject of data set [4] is poly (ADP-ribose) polymerase (“PARP”) proteins. As to conditions: selective for PARP-1 and PARP-2; Thorsell et al.; cited from earlier work.
Data set [5] has as its system human cancers with deficiencies in BRCA1 and BRCA2 or with homologous recombination deficiency (HRD). The following applies: mutated or wild-type BRCA1/2; cited from earlier work.
In data set [6] the test system is BRCA1- and BRCA2-deficient cell lines. As to conditions: in vitro; cited from earlier work.
Where [7] appears, read: pH 1 buffer (50 mM), shaken at 37° C. for 24 hours in total, average of triplicate.
Setting [8] is: water, shaken at 37° C. for 24 hours in total, average of triplicate.

≈ marks a conversion by molar mass, not a printed value. Where two headings read alike, the source gives them in different places.

For `NC(=O)c1cccc2cn(-c3ccc([C@@H]4CCCNC4)cc3)nc12` [Amorphous Form, 2-{4-[(3S)-piperidin-3-yl]phenyl}-2H-indazole-7-carboxamide], the Solubility in the data set “physchem” (setting [7]) was 11800 µg/mL (≈ 36.8 mM); in “physchem” (water, Solubility in water, summary statement, conditions not stated), around 1000 µg/mL (≈ 3.12 mM); in the data set “physchem” (setting [8]) it was 800 µg/mL (≈ 2.5 mM). Further, the solubility at 24 h in “physchem” (pH 4.5 sodium acetate/acetic acid buffer, pH 4.5, aqueous buffer, pH 4.5 buffer (50 mM), shaken at 37° C. for 24 hours in total, average of triplicate) worked out at 13400 µg/mL (≈ 41.8 mM); in “physchem” (pH 6.8 KH2PO4/NaOH buffer, pH 6.8, aqueous buffer, pH 6.8 buffer (50 mM), shaken at 37° C. for 24 hours in total, average of triplicate), 600 µg/mL (≈ 1.87 mM). In addition, in data set [1] (listed as amorphous samples), the “Solid form after filtration (XRPD)” value is reported as “a new crystalline form was obtained (Form V)”. Also, the “Dissolution in 2-propanol” value in data set [2] (2-propanol, heated to about 50° C.) is recorded as “partially soluble”. The Dissolution in ethanol result in data set [2] (ethanol, with heating to about 40° C.) is “Complete dissolution”.

In the case of `NC(=O)c1cccc2cn(-c3ccc([C@@H]4CCCNC4)cc3)nc12` [Crystalline Form I, 2-{4-[(3S)-piperidin-3-yl]phenyl}-2H-indazole-7-carboxamide], the Solubility in the data set “physchem” (setting [7]) is 30900 µg/mL (≈ 96.4 mM); in “physchem” (pH 4.5 buffer (50 mM), shaken at 37° C. for 24 hours in total, average of triplicate), 11800 µg/mL (≈ 36.8 mM); in “physchem” (pH 6.8 buffer (50 mM), shaken at 37° C. for 24 hours in total, average of triplicate) it was 700 µg/mL (≈ 2.18 mM); in the data set “physchem” (setting [8]), below 100 µg/mL. Moreover, the figures for the Hygroscopicity result in data set [3] (listed as Niraparib freebase Form I) and in data set [3] (listed as niraparib freebase Form I) were “non-hygroscopic” and “non-hydroscopic”, respectively. The GVS mass increase entry in data set [3] (up to 90% RH, 25° C.) was “about 0.7%”. Also, in data set [1] (listed as crystalline samples), the “Solid form after filtration (XRPD)” value is on record as “unchanged”.

On to `NC(=O)c1cccc2cn(-c3ccc([C@@H]4CCCNC4)cc3)nc12` [Niraparib, 2-{4-[(3S)-piperidin-3-yl]phenyl}-2H-indazole-7-carboxamide], for which the PARP inhibition entry in data set [4] was “potent inhibitor”. In addition, the Tumor growth result in data set [5] is “decreases tumor growth”. Besides, in data set [6], the Inhibition of proliferation result was “inhibits the proliferation”.

Values taken from US20210347758A1 (Tesaro, Inc., priority 2018, published 2021).
